# ChEMBL document CHEMBL5532728, “Novel Tyrosine Kinase 2 Inhibitors for Treating Autoimmune and Inflammatory Diseases” (ACS Med Chem Lett, 2024)
# pIC50: −log10 of the molar value.
# Biological target: Non-receptor tyrosine-protein kinase TYK2 (Homo sapiens, UniProt P29597)
# Assay: Inhibition of 10-His tagged recombinant TYK2 JH2 domain (575 to 876 residues) (unknown origin) incubated for 60 mins by TR-FRET assay
# Sequence of Non-receptor tyrosine-protein kinase TYK2 (P29597 whole entry, the tested form may be a part): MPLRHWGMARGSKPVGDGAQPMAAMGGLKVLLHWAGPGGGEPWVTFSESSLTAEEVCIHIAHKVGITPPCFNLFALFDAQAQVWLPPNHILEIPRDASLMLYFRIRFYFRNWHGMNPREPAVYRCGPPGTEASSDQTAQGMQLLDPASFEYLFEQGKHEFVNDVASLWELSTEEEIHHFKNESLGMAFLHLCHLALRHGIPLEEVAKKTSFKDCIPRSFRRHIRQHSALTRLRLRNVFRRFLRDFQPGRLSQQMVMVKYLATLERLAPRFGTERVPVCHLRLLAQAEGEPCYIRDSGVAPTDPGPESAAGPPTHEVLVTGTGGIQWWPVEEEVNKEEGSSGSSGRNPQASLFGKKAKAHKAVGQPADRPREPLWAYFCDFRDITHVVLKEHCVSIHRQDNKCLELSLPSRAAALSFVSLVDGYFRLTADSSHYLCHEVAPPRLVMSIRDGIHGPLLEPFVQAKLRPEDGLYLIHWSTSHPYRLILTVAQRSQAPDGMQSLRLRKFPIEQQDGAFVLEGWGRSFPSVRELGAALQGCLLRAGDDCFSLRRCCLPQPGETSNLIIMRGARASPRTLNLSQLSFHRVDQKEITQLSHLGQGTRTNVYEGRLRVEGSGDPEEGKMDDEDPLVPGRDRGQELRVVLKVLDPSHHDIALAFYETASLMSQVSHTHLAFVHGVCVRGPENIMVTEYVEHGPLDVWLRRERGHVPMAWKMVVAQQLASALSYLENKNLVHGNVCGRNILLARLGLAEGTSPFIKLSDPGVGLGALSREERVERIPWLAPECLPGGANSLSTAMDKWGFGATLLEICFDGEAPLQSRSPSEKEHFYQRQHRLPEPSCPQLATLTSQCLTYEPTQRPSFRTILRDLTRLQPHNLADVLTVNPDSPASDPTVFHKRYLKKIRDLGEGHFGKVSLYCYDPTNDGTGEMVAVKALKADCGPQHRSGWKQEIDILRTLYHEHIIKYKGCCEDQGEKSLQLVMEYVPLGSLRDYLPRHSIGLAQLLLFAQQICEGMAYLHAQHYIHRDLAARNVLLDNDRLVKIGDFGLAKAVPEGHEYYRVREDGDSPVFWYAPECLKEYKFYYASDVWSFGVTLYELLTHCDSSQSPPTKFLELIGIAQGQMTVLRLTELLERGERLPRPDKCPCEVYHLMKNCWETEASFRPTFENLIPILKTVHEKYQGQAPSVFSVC
row,pIC50,SMILES
1,≥ 8.00,CC(=O)Nc1cc2c(cn1)C1(CC1)CN2c1cc(C)nc(C2CCC2)n1
2,≥ 8.00,CSc1nc(C)cc(N2CC3(CC3)c3cnc(NC(C)=O)cc32)n1
3,≥ 8.00,CC(=O)Nc1cc2c(cn1)C1(CC1)CN2c1cc(-c2ncn(C)n2)nc(C(C)(F)F)n1

# The remaining lines, values behind:
row,SMILES,pIC50
1,CC(=O)Nc1cc2c(cn1)C1(CC1)CN2c1cc(NC2CCSC2)nc(C(C)(F)F)n1 (stereo unspecified),≥ 8.00
2,CC(=O)Nc1cc2c(cn1)C1(CC1)CN2c1nc(C2CCOC2)c(C)s1 (stereo unspecified),≥ 8.00
3,CC(=O)Nc1cc2c(cn1)C1(CC1)CN2c1cccc(S(C)(=O)=O)n1,≥ 8.00
